Source: ChEMBL document CHEMBL4619768, “Limonoids from Cipadessa baccifera” (J Nat Prod, 2020)
The source made the active and inactive calls. No cut-off for these calls is given here.

Test system: Plasmodium falciparum
Test: Antimalarial activity against chloroquine-resistant ring-stage Plasmodium falciparum Dd2 incubated for 72 hrs by SYBR green1 dye-based assay
Format: functional, organism-based
Settings: for IC50: Dd2, 72 h

| Structure (SMILES) | IC50 | Activity |
| --- | --- | --- |
| C=C1[C@]2(O)CC[C@@]3(C)[C@H](c4ccoc4)CC(=O)C[C@]13O[C@H]1[C@@H](OC(=O)[C@H](C)CC)[C@H](O)C(C)(C)[C@H](CC(=O)OC)[C@]12C | 16.3 µM |  |
| COC(=O)C[C@H]1C(C)(C)[C@@H](O)[C@H](OC(=O)C(C)C)[C@@H]2O[C@]34CC(=O)O[C@@H](c5ccoc5)[C@]3(C)C[C@@H](C(=O)[C@@H]4C)[C@@]21C | 28 µM |  |
| COC(=O)C[C@H]1C(C)(C)[C@@H](OC(C)=O)[C@H](O)[C@@H]2OC3=C(C)C4=CC(=O)O[C@@H](c5ccoc5)[C@]4(C)[C@@H](O)[C@@H]3[C@@]21C |  | inactive |
| COC(=O)[C@@H](O)[C@H]1C(C)(C)[C@H](OC(C)=O)C[C@@H]2O[C@]34CC(=O)O[C@@H](c5ccoc5)[C@]3(C)[C@@H](OC(C)=O)[C@@H](C(=O)[C@@H]4C)[C@@]21C |  | inactive |
| COC(=O)[C@@H](O)[C@H]1C(C)(C)[C@H](OC(C)=O)[C@H](OC(C)=O)[C@@H]2O[C@]34CC(=O)O[C@@H](c5ccoc5)[C@]3(C)C[C@@H](C(=O)[C@@H]4C)[C@@]21C |  | inactive |
| COC(=O)[C@@H](O)[C@H]1C(C)(C)[C@@H](O)[C@H](OC(=O)C(C)C)[C@@H]2O[C@]34CC(=O)O[C@@H](c5ccoc5)[C@]3(C)C[C@@H](C(=O)[C@@H]4C)[C@@]21C | 16.9 µM |  |
| C[C@@H]1CC[C@H]2[C@@H](C)C(=O)O[C@@H]3O[C@@]4(C)CC[C@@H]1[C@]32OO4 [ARTEMISININ] | 0.013 µM |  |
| C=C1[C@]2(O)CC[C@@]3(C)[C@H](c4ccoc4)CC(=O)C[C@]13O[C@H]1[C@@H](OC(=O)[C@@H](C)CC)[C@H](O)C(C)(C)[C@H](CC(=O)OC)[C@]12C | 12.3 µM |  |
| COC(=O)C[C@H]1C(C)(C)[C@@H](O)[C@H](OC(C)=O)[C@@H]2OC3=C(C)C4=CC(=O)O[C@@H](c5ccoc5)[C@]4(C)[C@@H](O)[C@@H]3[C@@]21C |  | inactive |
| C=C1C2[C@H](O)C[C@@]3(C)[C@H](c4ccoc4)CC(=O)C[C@]13O[C@H]1[C@@H](OC(=O)[C@@H](C)CC)[C@H](O)C(C)(C)[C@H](CC(=O)OC)[C@@]21C |  | inactive |
| COC(=O)[C@@H](O)[C@H]1C(C)(C)[C@H](OC(C)=O)[C@H](OC(C)=O)[C@@H]2O[C@]34CC(=O)O[C@@H](c5ccoc5)[C@]3(C)[C@@H](OC(C)=O)[C@@H](C(=O)[C@@H]4C)[C@@]21C |  | inactive |
| C=C1[C@]2(O)CC[C@@]3(C)[C@H](c4ccoc4)CC(=O)C[C@]13O[C@H]1[C@@H](OC(=O)C(C)C)[C@H](O)C(C)(C)[C@H](CC(=O)OC)[C@]12C | 20 µM |  |
| COC(=O)[C@@H](O)[C@H]1C(C)(C)[C@H](OC(C)=O)C[C@@H]2OC3=C(C)C4=CC(=O)O[C@@H](c5ccoc5)[C@]4(C)[C@@H](OC(C)=O)[C@@H]3[C@@]21C |  | inactive |
| COC(=O)[C@@H](O)[C@H]1C(C)(C)[C@H](OC(C)=O)C[C@@H]2O[C@]34CC(=O)O[C@@H](c5ccoc5)[C@]3(C)C[C@@H](C(=O)[C@@H]4C)[C@@]21C |  | inactive |
| C=C1C2[C@H](O)C[C@@]3(C)[C@H](c4ccoc4)CC(=O)C[C@]13O[C@H]1[C@@H](OC(=O)[C@H](C)CC)[C@H](O)C(C)(C)[C@H](CC(=O)OC)[C@@]21C |  | inactive |
| C=C1[C@@]23CC(=O)C[C@@H](c4ccoc4)[C@]2(C)C[C@@H](OC(C)=O)[C@]1(O)[C@@]1(C)[C@@H](O3)[C@@H](OC(=O)[C@H](C)CC)[C@H](O)C(C)(C)[C@@H]1CC(=O)OC | 23.1 µM |  |
| C=C1[C@@]23CC(=O)C[C@@H](c4ccoc4)[C@]2(C)C[C@@H](OC(C)=O)[C@]1(O)[C@@]1(C)[C@@H](O3)[C@@H](OC(=O)C(C)C)[C@H](O)C(C)(C)[C@@H]1CC(=O)OC |  | inactive |
